Peptide text beside a SMILES is read from it.
Experiment: Accelerated stability study of blends: chemical compatibility of sweeteners with Compound 1B (assay potency)
Assay type: physicochemical
Procedure: The chemical compatibility between these excipients and Compound 1B was evaluated through an accelerated stability study. The formulation samples were prepared as blends, then stored at 25° C./60% RH and 40° C./75% RH for up to four weeks.
Chemical stability of the blends was evaluated both in the presence and absence of high-intensity sweeteners, and the results are summarized in Table 2.

## O=C1NS(=O)(=O)c2ccccc21 [Saccharin]
  Chemical stability (compatibility with Compound 1B): Incompatible

## OC[C@H]1O[C@H](O[C@]2(CCl)O[C@H](CCl)[C@@H](O)[C@@H]2O)[C@H](O)[C@@H](O)[C@H]1Cl [Sucralose]
  Chemical stability (compatibility with Compound 1B): Compatible

## COC(=O)[C@H](Cc1ccccc1)NC(=O)[C@@H](N)CC(=O)O [Aspartame] (H-Asp-Phe-OMe)
  Chemical stability (compatibility with Compound 1B): Compatible

## CC1=CC(=O)[N-]S(=O)(=O)O1.[K+] [Acesulfame-K]
  Chemical stability (compatibility with Compound 1B): Compatible
